Legend:
[1] = tested on: cGAMP activated THP-1 cells; experiment: PDE inhibitor library screen on cGAMP activated THP-1 cells, IFNβ ELISA; assay type: cell-based, human; conditions: 10 μM compound, suboptimal 2′,3′-cGAMP, 24 hours
Description: THP-1 Cell Activation and Screening of Test Compounds: • (a) THP-1 cells from bulk cultures were counted and suspended in RPMI 1640, 20% FBS, 2.5 mM L-alanyl-L-glutamine at a concentration of 5.5×10^6 cells/mL. The THP-1 cells were subsequently seeded into 96 well round bottom plates—volume of 180 μL/well (1×10^6 cells per well), and the plate was incubated for 1 hour at 37° C., 5% CO2. • (b) Test compounds comprising known phosphodiesterase inhibitors (PDEs), were screened in triplicate (N1, N2, N3) on THP-1 cells. For compound screening, test compounds were assayed at a final concentration of 10 μM. A 200 μM (0.2 mM) working solution of each compound was prepared by diluting 10 mM DMSO stock solutions of each compound in media at a dilution of 50:1 (1640, 20% FBS, 2.5 mM L-alanyl-L-glutamine). […]
(i) Cell culture supernatants were harvested by centrifuging the plates at 200×g for 10 minutes. Cell culture supernatants were then transferred to a clean plate and stored at −80° C. until ready to analyze for IFNβ levels. • (j) IFNβ levels in cell culture supernatants were determined by ELISA according to the manufacturer's instructions (VeriKine Human IFNβ Assay). • (k) The interpolated data was normalized to vehicle control, or unstimulated control, and analyzed.

human recombinant ENPP1 [2] = target: T1, human recombinant ENPP1 (Homo sapiens, UniProt P22413); experiment: ENPP1 inhibition with 2′,3′-cGAMP substrate (AMP-Glo assay); assay type: biochemical; conditions: for Ki: 20 μM 2′3′cGAMP, Ki from IC50 by Cheng-Prusoff, Km 15 μM; for inhibition at 1 µM: at 1 μM compound; for inhibition at 1 µM / inhibition at 10 µM: read-out: Inhibition of ENPP1 with cGAMP as the Substrate; for inhibition at 10 µM: at 10 μM compound
T1 sequence (P22413 1-925): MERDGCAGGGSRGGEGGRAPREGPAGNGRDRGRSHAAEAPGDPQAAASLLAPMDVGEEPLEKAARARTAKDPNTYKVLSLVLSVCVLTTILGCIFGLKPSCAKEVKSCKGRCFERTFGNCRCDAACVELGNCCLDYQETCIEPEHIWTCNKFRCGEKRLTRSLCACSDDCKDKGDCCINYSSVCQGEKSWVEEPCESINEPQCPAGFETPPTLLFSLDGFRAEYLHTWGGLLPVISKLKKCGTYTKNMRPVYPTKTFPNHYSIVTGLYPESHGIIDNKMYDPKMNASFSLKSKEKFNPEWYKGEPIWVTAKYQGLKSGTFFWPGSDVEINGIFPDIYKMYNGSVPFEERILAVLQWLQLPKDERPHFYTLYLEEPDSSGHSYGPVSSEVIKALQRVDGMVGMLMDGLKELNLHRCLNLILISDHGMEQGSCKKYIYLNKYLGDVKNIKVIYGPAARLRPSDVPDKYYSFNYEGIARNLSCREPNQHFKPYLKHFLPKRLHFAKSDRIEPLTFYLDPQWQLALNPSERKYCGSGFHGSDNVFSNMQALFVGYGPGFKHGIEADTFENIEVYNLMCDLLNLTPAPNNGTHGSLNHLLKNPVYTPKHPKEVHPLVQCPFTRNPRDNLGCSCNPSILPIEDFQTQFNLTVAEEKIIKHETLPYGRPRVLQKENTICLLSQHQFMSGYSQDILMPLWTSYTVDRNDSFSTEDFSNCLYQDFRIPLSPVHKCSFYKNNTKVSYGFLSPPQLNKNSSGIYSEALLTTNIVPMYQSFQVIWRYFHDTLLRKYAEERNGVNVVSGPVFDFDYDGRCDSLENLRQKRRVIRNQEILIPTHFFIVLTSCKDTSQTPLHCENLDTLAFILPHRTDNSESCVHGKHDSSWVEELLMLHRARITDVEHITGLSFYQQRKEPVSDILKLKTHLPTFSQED
Description: The AMP-Glo™ Assay Kit contains two reagents that are added sequentially. The first converts the 5′-AMP produced in the reaction to 5′ADP. The second converts the 5′-ADP to 5′ATP and reacts the 5′-ATP with the luciferase/luciferin pair to produce the luminescence signal. […] Inhibitors are added at final concentrations ranging between 10 μM and 30 pM depending on the compound. Duplicate wells are run at each inhibitor concentration. The final assay volume is 18 μL and human recombinant ENPP1 is present at 5 ng/well. The assay is initiated by the addition of substrate (20 μM 2′3′cGAMP final concentration), and incubated for 30 minutes at 37° C. To stop the reaction, 12 μl of AMP-Glo reagent I is added and the plate is incubated for 60 minutes at room temperature. 25 μl of AMP-detection reagent is then added and the wells are again incubated for 60 minutes at room temperature. The luminescence signal is then measured using a plate-reading luminometer. Each assay plate also includes wells with no enzyme added (MIN OD) and wells with no inhibitor added (MAX OD). The percent inhibition of ENPP1 for each sample is then calculated as: […]
IC50 values of compounds were calculated by entering the percent inhibition values into a sigmoidal variable slope nonlinear regression model in GraphPad Prism® software. IC50 values were converted to Ki values using the Cheng-Prusoff equation2 where the Km was 15 μM, based on internal determinations.

human recombinant ENPP1 [3] = target: T1, human recombinant ENPP1; experiment: ENPP1 inhibition with AMP-pNP (ATP analog) substrate, absorbance at 405 nm; assay type: biochemical; conditions: 300 μM AMP-pNP; Ki from IC50 by Cheng-Prusoff, Km 151 μM
Description: The ENPP1 assay with AMP-pNP substrate is conducted in a buffer containing 50 mM Tris-HCl (pH 8.5)/250 mM NaCl/0.5 mM CaCl2/1 μM ZnCl2/0.1% DMSO. Inhibitors are added at final concentrations ranging between 10 μM and 30 pM depending on the compound. Duplicate wells are run at each inhibitor concentration. The final assay volume is 40 μL and human recombinant ENPP1 is present at 60 ng/well. The assay is initiated by the addition of substrate (300 μM AMP-pNP final concentration), and incubated for 20 minutes at 37° C. […] Each assay plate also includes wells with no enzyme added (MIN OD) and wells with no inhibitor added (MAX OD). The percent inhibition of ENPP1 for each sample is then calculated as: […]
IC50 values of compounds were calculated by entering the percent inhibition values into a sigmoidal variable slope nonlinear regression model in GraphPad Prism® software.

Row | SMILES | Ki (human recombinant ENPP1 [2]) [nM] | Substrate Selectivity Ki Ratio AMP-pNP/2′3′cGAMP (human recombinant ENPP1 [2]; Ki (AMP-pNP)/Ki (2′3′-cGAMP)) | also measured
1 | O=c1cc(-c2ccc(O)c(O)c2)oc2cc(O)cc(O)c12 [Compound 1] |  |  | augmentation of cGAMP mediated IFNβ production [1]: augmentation of cGAMP mediated IFNβ production
2 | COc1cc2nccc(Nc3ccc(NS(=O)(=O)c4ccccc4)cc3)c2cc1OC [Compound 14] | 29.1 |  | Ki (human recombinant ENPP1 [3]): 1830 nM
3 | COc1cc2nccc(Oc3ccc(CS(N)(=O)=O)cc3)c2cc1OC [Compound 6] |  | >325 | 
4 | CCN(C)S(=O)(=O)NCCC1CCN(c2ncnc3cc(OC)c(OC)cc23)CC1 [Compound 12] | 336 |  | 
5 | COc1cc2ncn(-c3ccc(CNS(N)(=O)=O)cc3)c2cc1OC [Compound 16] | 27.1 |  | Ki (human recombinant ENPP1 [3]): 1460 nM
6 | COc1ccc(NC(=O)CSc2nc3c(N)ncnc3[nH]2)cc1OC [Compound 2] |  |  | inhibition at 1 µM (human recombinant ENPP1 [2]): 99%; inhibition at 10 µM (human recombinant ENPP1 [2]): 99%
7 | Cn1cnc2cccc(N3CCC(CCCS(C)(=O)=O)CC3)c21 [Compound 9] |  | >128 | 
8 | COc1cc2ncnc(N3CCC(CCNS(N)(=O)=O)CC3)c2cc1OC [Compound 3] |  |  | inhibition at 1 µM (human recombinant ENPP1 [2]): 99%; inhibition at 10 µM (human recombinant ENPP1 [2]): 99%; augmentation of cGAMP mediated IFNβ production [1]: augmentation of cGAMP mediated IFNβ production
9 | COc1ccc(CC(=O)CCC2=Nc3c(N)ccnc3C2)cc1OC [Compound 4] |  | >37500 | selectivity for inhibition of cGAMP over AMP-pNP hydrolysis by ENPP1 (human recombinant ENPP1 [2]; Ki (AMP-pNP)/Ki (2′3′-cGAMP)): > 37,500 fold
10 | COc1cc2ncnc(N3CCC(CCN)CC3)c2cc1OC [Compound 5] | 46.7 |  | 

Continued, in another order:

Row | Ki (human recombinant ENPP1 [2]) [nM] | Substrate Selectivity Ki Ratio AMP-pNP/2′3′cGAMP (human recombinant ENPP1 [2]; Ki (AMP-pNP)/Ki (2′3′-cGAMP)) | SMILES | also measured
11 | 1.8 |  | COc1cc2ncnc(-c3ccc4c(c3)CN(S(N)(=O)=O)CC4)c2cc1OC [Compound 21] | Ki (human recombinant ENPP1 [3]): 65.2 nM
12 |  | >23.9 | COc1cc2nc(-c3cccnc3)nc(N3CCC(CCNS(C)(=O)=O)CC3)c2cc1OC [Compound 23] | 
13 | 44 |  | COc1cc2nccc(Oc3ccc(NS(=O)(=O)c4ccccc4)cc3)c2cc1OC [Compound 25] | 
14 |  | 18.7 | COc1cc2ncnc(N3CCC4(CC3)CN(S(N)(=O)=O)C4)c2cc1OC [Compound 24] | 
